Assay results taken from US20210212959A1, “GIP ELEVATION INHIBITOR” (KAO CORPORATION, priority 2018, published 2021).

System: blood GIP level
Assay: GIP elevation inhibitory activity of D-mannitol (single dietary test)
Assay type: in vivo, mice (C57BL/6J)
Description: Powdery feeds were prepared by using D-mannitol (manufactured by Kao Corp.) in accordance with the compositions listed in the following table and used as test samples. [table] Powdery feeds (Table 1) were weighed so as to have the same calories in each group and freely fed for 30 minutes to mice (C57BL/6J, CLEA Japan, Inc, male, 10-weeks old, n=10) fasted for 18 hours or more. During this free feeding, 200 mg of the feed was given to the high fat diet (HF) group; whereas, 216 mg of the feed to the D-mannitol group. Note that the calorie of D-mannitol was calculated as 0. Before feeding, and 30, 60 and 120 minutes after feeding a powdery-feed test sample, the mice were anesthetized with isoflurane, blood was sampled from the orbit (heparinized hematocrit micro blood collection tube, manufactured by VITREX) and the blood GIP level was measured. The amount of GIP was measured in accordance with ELISA method (Rat/Mouse GIP (total) ELISA (Millipore)). Each value was shown by mean±standard deviation. Statistically significant difference between the groups was obtained by applying Student's t-test to the HF group (*: p<0.05).

## OC[C@@H](O)[C@@H](O)[C@H](O)[C@H](O)CO [D-mannitol]
Conclusion of single dietary test in mice
  inhibitory activity against GIP elevation: has an inhibitory activity against GIP elevation
Mice C57BL/6J male, fasted 18 hours or more, 216 mg high fat powdery feed containing D-mannitol, compared to HF group, Student's t-test p<0.05, FIG. 1A
  blood GIP concentration value at 30 minutes after intake of the sample: significantly low
Mice C57BL/6J male, fasted 18 hours or more, 216 mg high fat powdery feed containing D-mannitol, compared to control (HF) group, p<0.05, FIG. 1B
  area under the curve of GIP concentration up to 120 minutes after intake of the sample: significantly low
